# Where “and” joins values, the source holds several entries; their conditions need not be identical. Equal values may be shown once. Read-outs that look alike come from different tables or passages of the source.
# Legend:
# H9c2 cells = test: Mitochondrial membrane potential, JC-1 red to green fluorescence; type: cell-based, rat; conditions: H9c2, 5 μM rotenone 30 min, drugs at 2.5 μM
# Experimental: (§1) FIGS. 3A-3H. […] FIGS. 3A-3B. […] FIG. 3A. […] FIG. 3B. […] FIGS. 3C-3D. […] FIG. 3D. […] FIGS. 3E-3F. […] FIG. 3E. Representative blots are shown. […] FIG. 3F. […] FIG. 3G. […] FIG. 3H.
# (§2) The cells were then washed once with PBS, placed back in the DMEM experimental medium, and incubated with the indicated drugs for 30 min. At the end of the incubation period, nuclei of both the MitoSOX Red- and JC-1-treated cells were stained with […] 4′,6-diamidino-2-phenyl-indole (DAPI) for 3 min, washed once with PBS, and returned to the DMEM experimental medium. The cover slips were removed from the wells, mounted in the DMEM experimental medium, and red (MitoSOX Red and JC-1 aggregates), green (JC-1 monomers), and blue (DAPI) fluorescence intensity was assessed using a Keyence BZ-X700 fluorescence microscope at the following paired excitation/emission wavelengths, respectively: 560/630, 490/525, and 360/460 nm.
# Increased mitochondrial O2·^− by rotenone would be expected to reduce the mitochondrial membrane potential (ΔΨm), due in part to activation of uncoupling proteins^39. […] Rotenone caused an almost complete loss of red fluorescence and a striking increase in green fluorescence in the cells, indicating a marked decrease in ΔΨm (FIGS. 3C-3D).
# [1] = literature values; not strictly comparable with third-order constants; cited from earlier work
# [2] = second order; literature values; cited from earlier work
# [3] = tested on: Jun N-terminal kinase (JNK) phosphorylation in H9c2 cells; test: H2O2-induced JNK phosphorylation, immunoblotting; type: cell-based, rat; conditions: for JNK phosphorylation in H2O2-treated cells: H9c2, 100 μM H2O2 30 min, drugs at 100 μM
# Description: as §1
# [4] = tested on: H9c2 rat embryonal cardiomyocytes; test: Mitochondrial superoxide content, MitoSOX Red fluorescence; type: cell-based; conditions: H9c2, 5 μM rotenone 30 min, drugs at 2.5 μM
# Experimental: as §1
# H9c2 cells were plated on glass cover slips in 24 well dishes, and 16 h later the medium was changed to phenol red-free DMEM supplemented with 20 mM Hepes, 0.1% fetal bovine serum, and 0.5% bovine serum albumin. […] MitoSOX Red is a dihydroethidium derivative containing triphenyl-phosphonium, which localizes it to respiring mitochondria. Its reaction with O2·^− yields 2-hydroxy-mitoethidium (2-OH-Mito-E″), whereas its reaction with other oxidative species yields mitoethidium (Mito-E^+)^67. These two oxidative derivatives have overlapping fluorescence spectra, but they can be distinguished by high performance liquid chromatography (HPLC)^68. Rotenone increased 2-OH-Mito-E^+ about two-fold, without increasing Mito-E^+. Thus, any increased fluorescence observed on treating cells with rotenone could be ascribed to an increase in 2-OH-Mito-E^+, and decreased fluorescence by an anti-oxidant in rotenone-treated cells was likely from a decrease in 2-OH-Mito-E^+.
# as §2
# To assess if cobinamide reduces oxidative stress in cells and to compare its […] efficacy to that of cobalamin, imisopasem, and MnTBAP, several sets of experiments were performed. First, whether cobinamide reduces mitochondrial-generated O2·^− was evaluated using the fluorescent probe MitoSOX Red. H9c2 rat embryonal cardiomyocytes were treated with rotenone, an inhibitor of complex I, to increase mitochondrial O2·^−. […] Monitoring the UV-visible spectrum of cobinamide is a sensitive means to assess ligand binding^38.
# [5] = second order; literature values; cited from earlier work; remark: listed apart in the source
# COS-7 cells = tested on: COS-7 cells
# Experimental: as §1
# Finally, whether cobinamide could alleviate the effects of oxidative stress induced by yet another mechanism in a different cell type was tested using paraquat-treated COS-7 cells. Paraquat generates O2·^− through a redox cycling mechanism and increases both intracellular O2·^− and H2O2^42.
# [6] = literature values, cited from earlier work; for Rate constant, reaction with nitric oxide (·NO), published: second order
# D. melanogaster = test: Survival of fruit flies during paraquat poisoning; type: in vivo
# Experimental: The number of live flies was counted each day for 7 d. The experiment was repeated seven times, for a total of 70 flies per condition. The percent surviving flies was calculated; error bars represent standard deviations and are shown in one direction only for sake of clarity. […] Chi, cobinamide in Panel A and histidyl-cobinamide in Panels B-K; Imp, imisopasem; MnTP, MnTBAP; CbL, cobalamin; DNPH, 2,4-dinitrophenylhydrazine; ND, non-diabetic; D, diabetic; Veh, vehicle.
# To test cobinamide in a whole animal, D. melanogaster was selected for initial studies, and oxidative stressed was increased in the files by administering paraquat in their food. Cobinamide was again compared to imisopasem, MnTBAP, and hydroxocobalamin, all administered in food.
# [7] = Reaction with superoxide, hypoxanthine-xanthine oxidase-cytochrome c reduction system; type: biochemical; conditions: for Apparent rate constant, reaction with superoxide (O2·^−): second order, hypoxanthine-xanthine oxidase-cytochrome c system, new data of this study
# Experimental: FIGS. 1A-1G. Cobinamide Functions as a Superoxide Dismutase Mimetic. FIGS. 1A-1B. Chemical structures of aquohydroxo-cobinamide (FIG. 1A) and hydroxo-cobalamin (FIG. 1B). FIGS. 1C, 1E. Increasing concentrations of Chi(III) (FIG. 1C) or Chi(II) (FIG. 1E) were incubated in a hypoxanthine-xanthine oxidase-cytochrome c-catalase system for measuring O2·^−, with the change in absorbance at 550 nm (ΔAbs) plotted versus time. A no substrate (no hypoxanthine) control was included. FIGS. 1D, 1F. The calculated rate of change of absorbance at 550 nm in the absence of Chi(III) or Chi(II) (Vo) divided by the calculated rate in their presence (v) is plotted against the Chi(III) (FIG. 1D) or Chi(II) (FIG. 1F) concentration, respectively. The slope of the fitted line was used to calculate the apparent rate constant according to the following equation: kCbi=slope×kcytochrome c×[cytochrome c], where kcytochrome c=1.4×10^6 M^−1 s^−1 and [cytochrome c]=70 μM^70. The data shown are the mean of duplicate samples from one experiment, with similar results found in two additional experiments. Dotted lines show 95% confidence intervals. FIG. 1G. A 20 μM solution of Chi(III) in DMSO was scanned from 280 to 600 nm yielding the spectrum shown as a black line. An equimolar amount of […] (KO2) dissolved in dimethyl sulfoxide (DMSO) was added and the solution was scanned immediately, yielding the grey line. […] The experiment was conducted three times with identical results.
# (§3) Table I. Reaction Rates of Cobinamide (Cbi), Cobalamin, Imisopasem, and MnTBAP with Reactive Oxygen and Nitrogen Species. Reactions of the indicated compounds with O2·^−, ONOO^−, and ·NO are all second order reactions with rate constants in units of M^−1 s^−1. The reactions of Cbi(III) and Cbi(II) with H2O2 are third order with rate constant units of M^−2 s^−1. Chi(II) and cobalamin(II) bind nitric oxide, so a Ka is shown in units of M^−1. For the new data presented in this study, rate constants were measured for O2·^− using a hypoxanthine-xanthine oxidase-cytochrome c system, for H2O2 using a H2O2-specific sensor (World Precision Instruments), and for ONOO^− using a stopped-flow instrument. Published rate constants for Cu/Zn and Mn superoxide dismutases (SOD) and catalase are shown for reference.^a,b Letters and numbers in parenthesis refer to footnotes and references, respectively.
# The reaction of cobinamide with O2·^− was studied in two different systems, generating O2·^− using a hypoxanthine-xanthine oxidase system.
# The first system contained 100 μM hypoxanthine and 0.1 unit xanthine oxidase in 20 mM sodium phosphate buffer, pH 7.1. The amount of O2·^− was measured by following reduction of ferric-cytochrome c (70 μM) at 550 nm as described previously^65. Catalase was included (32 units per sample), because xanthine oxidase generates both O2·^− and H2O2, and the latter can re-oxidize the ferro-cytochrome c product^34,66. The reaction was followed for 10 min. A no substrate blank lacking hypoxanthine was included.
# In both systems, the experiments were conducted in the absence and presence of the indicated concentrations of Cbi(III) or Chi(II) 65.
# Catalase was included in the reaction mixture, because the hypoxanthine-xanthine oxidase system also generates H2O2 and the latter can oxidize the ferro-cytochrome c product back to ferric-cytochrome c, thereby interfering with the kinetic measurement^34.
# [8] = Reaction with hydrogen peroxide, H2O2-specific electrode; type: biochemical
# Experimental: (§4) FIGS. 2A-2F. Cobinamide Functions as a Catalase Mimetic and Reacts with Peroxynitrite. […]. Hydrogen peroxide (final concentration 50 μM) was added to solutions containing increasing concentrations of Chi(III) (FIG. 2A) or Chi(II) (FIG. 2C), and the H2O2 concentration was measured over time using a H2O2-specific electrode. The log of the velocity in the presence of Chi(III) (FIG. 2B) or Chi(II) (v) (FIG. 2D) over the velocity in their absence (Vo) is plotted against the log of their concentrations at 20 min over their concentrations at zero time. These plots yield a reaction order with respect to Chi(III) and Cbi(II) of 0.7. The experiments were repeated three times with similar results. Dotted lines show 95% confidence intervals. FIG. 2E. […] The Chi(III) spectra are slightly different from those shown in FIG. 1G because at pH 11, dihydroxo-cobinamide is generated, whereas at pH 7.1, aquohydroxo-cobinamide is the predominant species. The spectra of aquohydroxo- and dihydroxo-cobinamide are known to be different^65. FIG. 2F. Varying concentrations of Chi(II) from 1 to 10 μM were mixed with 10 μM peroxynitrite in a stopped-flow instrument, and absorption at 315 nm was monitored for 0.5 sec. The results for 5 μM Cbi(II) are shown; red circles are the observed data, and the black line is a two-phase non-linear regression curve generated by Prism 7.04 software. […] The experiment was repeated three times with similar results. Dotted lines show 95% confidence intervals.
# as §3
# Both Cbi(III) and Chi(II) react with H2O2, and the reaction was essentially first order with respect to Cbi(III) and Cbi(II) (FIG. 2A-D), and second order with respect to H2O2 for both cobinamide species. […]
# [9] = Reaction with peroxynitrite, stopped-flow; type: biochemical
# Experimental: as §4
# as §3, with “Chi(II) and cobalamin(II) bind nitric oxide, so a Ka is shown in units of M^−1.” left out, “Published rate constants for Cu/Zn and Mn superoxide dismutases (SOD) and catalase are shown for reference.^a,b Letters and numbers in parenthesis refer to footnotes and references, respectively.” left out
# [10] = even on exposure to air
# Experimental: H9c2 cells were incubated for 30 min with vehicle, 2.5 μM cobinamide, or 5 μM rotenone, the latter in the absence or presence of 2.5 μM cobinamide, imisopasem, MnTBAP, or cobalamin; 5 μM MitoSOX was added during the last 10 min. The cells were incubated with 1 mg/ml DAPI for 3 min to counterstain nuclei, and then visualized under a fluorescence microscope. […] Equal-sized representative areas for each condition are shown for MitoSOX staining (red fluorescence) and the same area showing merged MitoSOX and DAPI staining. […] The amount of red fluorescence was quantified by Image J analysis. Data are the mean±SD of three independent experiments; in each experiment two separate equal-sized areas were analyzed containing ˜75 cells per area. […] H9c2 cells were incubated for 10 min with 10 μM JC-1, washed once with PBS, and then incubated for 30 min with vehicle, 2.5 μM cobinamide, or 5 μM rotenone in the absence or presence of 2.5 μM of the indicated drugs as described in Panels A, B. FIG. 3C. Cells were visualized under a fluorescence microscope and equal-sized representative areas of each condition are shown, with red and green fluorescence shown for the same area. […] The amount of red and green fluorescence was quantified by Image J analysis and the red to green ratio was calculated. The slides were analyzed by an operator who was blinded to the specific conditions. Data are the mean±SD of three independent experiments; in each experiment two separate equal-sized areas were analyzed containing ˜75 cells per area. […] Blots from four independent experiments were analyzed by densitometric scanning (Li-Cor Odyssey software) in a range where band intensity was linear. The ratio of the pJNK band to GAPDH was calculated, and the results normalized to control untreated cells. […] The UV-visible spectrum of Chi(III) in 50 mM potassium phosphate buffer, pH 7.4 was recorded before (black line) and immediately after adding a three-fold molar excess of ascorbate (blue line), cysteine (teal line), or reduced glutathione (GSH, pink line). […]
compound,measurement,setting,value
"O=C(O)c1ccc(-c2c3nc(c(-c4ccc(C(=O)O)cc4)c4ccc([n-]4)c(-c4ccc(C(=O)O)cc4)c4nc(c(-c5ccc(C(=O)O)cc5)c5ccc2[n-]5)C=C4)C=C3)cc1.[Mn+3] [MnTBAP, manganese(III)tetrakis(4-benzoicacid)porphyrin]",JC-1 red to green fluorescence ratio (ΔΨm) in rotenone-treated cells,H9c2 cells,modest degrees of recovery
same,"Rate constant, reaction with hydrogen peroxide (H2O2), published",[1],5.8
same,"Rate constant, reaction with superoxide (O2·^−), published",[2],~4.0 M⁻¹ s⁻¹
same,JNK phosphorylation in H2O2-treated cells,[3],small non-significant effects
same,MitoSOX red fluorescence in rotenone-treated cells,[4],reduced the fluorescent signal substantially
same,"Rate constant, reaction with peroxynitrite (ONOO^−), published",[5],~1 × 10^5 (27) M^−1 s^−1
same,Effect on cell growth of paraquat-treated cells,"COS-7 cells; COS-7, 1 mM paraquat 3 h, 100 μM drug, counted 48 h later",neither imisopasem nor MnTBAP had an effect
same,"Rate constant, reaction with nitric oxide (·NO), published",[6],No activity (28)
same,Effect on mortality of paraquat-exposed flies,"D. melanogaster; 20 mM paraquat with 0.8 mM drug in food, over 7 d",lesser effect
C/C1=C2/[N-][C@H]([C@H](CC(N)=O)[C@@]2(C)CCC(=O)NC[C@@H](C)O)[C@]2(C)N=C(/C(C)=C3N=C(/C=C4N=C1[C@@H](CCC(N)=O)C\4(C)C)[C@@H](CCC(N)=O)[C@]\3(C)CC(N)=O)[C@@H](CCC(N)=O)[C@]2(C)CC(N)=O.[Co] [Cbi(II)],"Apparent rate constants, reaction with O2·^−","[7]; hypoxanthine-xanthine oxidase-cytochrome c reduction system, catalase included, exponent shared in the sentence",1.92e+08 M⁻¹ s⁻¹
same,"Apparent rate constant, reaction with superoxide (O2·^−)",[7],1.9e+08 M⁻¹ s⁻¹
same,JNK phosphorylation in H2O2-treated cells,[3],reduced JNK phosphorylation to a level that was indistinguishable from vehicle-treated cells
same,JNK phosphorylation or total cellular JNK in the absence of H2O2,"[3]; H9c2, drug alone","neither Cbi(III), Cbi(II) nor the other three drugs affected JNK phosphorylation"
same,Reaction order with respect to the cobinamide species in the reaction with H2O2,[8]; 50 μM H2O2,0.7
same,"Apparent rate constant, reaction with hydrogen peroxide (H2O2)","[8]; third order, H2O2-specific sensor, new data of this study",3.7 × 10^4 M^−2 s^−1
same,"Ka, binding of nitric oxide (·NO), published",[6],Ka: 1.3 × 10^10 (51) M^−1
same,Fold higher ONOO^− rate constant than MnTBAP,[9]; compared with published MnTBAP value,> 50 fold
same,Fold higher ONOO^− rate constant than cobalamin(II),[9]; compared with published cobalamin(II) value,more than 10 fold
same,"Apparent rate constant, reaction with peroxynitrite (ONOO^−)","[9]; second order, stopped-flow, 10 μM peroxynitrite, new data of this study",6.34×10^6 M^−1 s^−1 and 6.3 × 10^6 (^c) ^ M^−1 s^−1
same,Persistence of the reduced state,[10],remains in the reduced state for several hours
hydroxo-cobalamin,JC-1 red to green fluorescence ratio (ΔΨm) in rotenone-treated cells,H9c2 cells,modest degrees of recovery
same,"Rate constant, reaction with hydrogen peroxide (H2O2), published",[1],4.5 × 10^6
same,"Apparent rate constant, reaction with superoxide (O2·^−)",[7],9.4e+06 M⁻¹ s⁻¹
same,JNK phosphorylation in H2O2-treated cells,[3],no effect
same,MitoSOX red fluorescence in rotenone-treated cells,[4],reduced the fluorescent signal substantially
same,Effect on cell growth of paraquat-treated cells,COS-7 cells,improved cell growth
same,"Rate constant, reaction with nitric oxide (·NO), published",[6],"No activity (51, 71)"
same,Effect on mortality of paraquat-exposed flies,D. melanogaster; in vivo,no significant effect

# — patent US20260069606A1, “Oxidative Stress and Diabetes Treatment with Cobinamide” (The Regents of the University of California, priority 2022, published 2026)
